Publication PMC5600277 (Neuropharmacology, 2017)
Where two headings read alike, the source gives them in different places.

Assays:
Assay type in all cases: cell-based
GLIC [1] = molecular target: T1, GLIC (Gloeobacter violaceus, UniProt Q7NDN8); assay: two-electrode voltage clamp in Xenopus oocytes, […] inhibition at […]; details: read-out: % inhibition at 30 μM
T1 sequence (Q7NDN8 44-359): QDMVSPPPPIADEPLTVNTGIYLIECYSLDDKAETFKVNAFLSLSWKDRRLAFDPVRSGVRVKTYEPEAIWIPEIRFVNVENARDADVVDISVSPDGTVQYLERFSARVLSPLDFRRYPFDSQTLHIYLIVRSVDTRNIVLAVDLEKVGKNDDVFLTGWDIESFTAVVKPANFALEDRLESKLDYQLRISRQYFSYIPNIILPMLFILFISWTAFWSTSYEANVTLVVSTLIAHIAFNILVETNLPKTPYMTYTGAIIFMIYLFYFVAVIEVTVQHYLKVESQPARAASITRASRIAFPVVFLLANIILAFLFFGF

[2] = molecular target: T2, GABAρ receptor (GABAAR ρ1) (Homo sapiens, UniProt P24046); assay: two-electrode voltage clamp in Xenopus oocytes, […] potentiation at […]; details: read-out: % potentiation at 10 μM
GLIC [3] = molecular target: T1, GLIC; assay: two-electrode voltage clamp in Xenopus oocytes, […] inhibition at […]; details: read-out: % inhibition at 30 μM; remark: listed apart in the source
[4] = molecular target: T2, GABAρ receptor (GABAAR ρ1); assay: as above; details: read-out: % inhibition at 10 μM
GLIC [5] = molecular target: T1, GLIC; assay: as above; details: read-out: % inhibition at 100 μM

T2 sequence (P24046 22-479): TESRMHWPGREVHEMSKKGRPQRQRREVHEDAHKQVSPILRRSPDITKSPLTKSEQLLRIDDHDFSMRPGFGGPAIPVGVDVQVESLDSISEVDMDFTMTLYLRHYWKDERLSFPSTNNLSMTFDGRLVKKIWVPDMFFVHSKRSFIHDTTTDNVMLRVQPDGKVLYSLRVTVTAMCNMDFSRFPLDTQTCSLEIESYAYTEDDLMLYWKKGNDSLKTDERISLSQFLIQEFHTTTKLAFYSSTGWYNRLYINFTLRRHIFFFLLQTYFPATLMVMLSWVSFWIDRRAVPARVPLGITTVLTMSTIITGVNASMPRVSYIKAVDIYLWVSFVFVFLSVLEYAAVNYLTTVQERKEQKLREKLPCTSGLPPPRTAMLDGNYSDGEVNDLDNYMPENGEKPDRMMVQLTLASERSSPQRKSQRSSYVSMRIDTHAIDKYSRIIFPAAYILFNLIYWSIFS

C[C@]12CC[C@@H](O)C[C@@H]1CC[C@@H]1[C@@H]2CC[C@]2(C)[C@@H](C(=O)CO)CC[C@@H]12 [5α-THDOC]
inhibition at 30 µM (GLIC [1]): 11 ± 2%
activation at 10 µM [2]: 42 ± 2%

C[C@]12CC[C@@H](O)C[C@H]1CC[C@@H]1[C@@H]2CC[C@]2(C)[C@@H](C(=O)CO)CC[C@@H]12 [5β-THDOC]
inhibition at 30 µM (GLIC [3]): 67 ± 3%
inhibition at 10 µM [4]: 25 ± 2%

CCCC(C)C1(CC)C(=O)NC(=O)NC1=O (centres unmarked) [PB, pentobarbital]
inhibition at 100 µM (GLIC [5]): 26 ± 6%
